{
  "source": "patent US8269040B2",
  "about": "“Derivatives of venlafaxine and methods of preparing and using the same” (Wyeth LLC, priority 1999, dated 2012)",
  "origin": "cited, not measured here",
  "key": {"dopamine uptake": {"molecular_target": "dopamine uptake (Rattus norvegicus, UniProt P23977)", "sequence (P23977 whole entry)": "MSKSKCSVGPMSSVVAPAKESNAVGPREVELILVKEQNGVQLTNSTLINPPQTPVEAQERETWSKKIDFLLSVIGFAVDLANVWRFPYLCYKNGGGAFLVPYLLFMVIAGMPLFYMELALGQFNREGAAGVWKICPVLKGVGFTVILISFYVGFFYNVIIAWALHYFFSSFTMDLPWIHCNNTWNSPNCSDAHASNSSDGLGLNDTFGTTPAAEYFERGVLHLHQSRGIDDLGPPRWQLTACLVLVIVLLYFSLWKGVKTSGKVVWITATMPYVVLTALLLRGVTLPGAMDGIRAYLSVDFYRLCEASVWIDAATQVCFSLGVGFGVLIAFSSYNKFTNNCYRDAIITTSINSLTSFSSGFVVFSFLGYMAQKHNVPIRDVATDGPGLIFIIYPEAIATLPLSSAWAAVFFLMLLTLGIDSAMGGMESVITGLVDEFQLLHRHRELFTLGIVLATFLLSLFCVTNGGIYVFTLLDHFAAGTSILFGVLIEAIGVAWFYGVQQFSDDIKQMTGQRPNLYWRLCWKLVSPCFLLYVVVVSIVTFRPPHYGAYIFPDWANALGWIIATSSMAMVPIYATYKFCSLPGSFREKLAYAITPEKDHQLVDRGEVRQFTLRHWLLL", "details": "in vitro; versus parent compound venlafaxine"}, "norepinephrine uptake": {"tested_on": "norepinephrine uptake", "details": "in vitro; versus parent compound venlafaxine"}, "serotonin uptake": {"tested_on": "serotonin uptake", "details": "versus the other enantiomer"}, "[1]": {"tested_on": "norepinephrine synaptosomal uptake", "details": "versus the other enantiomer"}},
  "data": [
    {"smiles": "CN(C)CC(c1ccc(O)cc1)C1(O)CCCCC1", "note": "(racemic) [O-desmethylvenlafaxine, (±)-1-[2-(dimethylamino)-1-(4-phenol)ethyl]cyclohexanol]", "values": [
      {"measurement": "half-life relative to that of venlafaxine", "setting": "compared with venlafaxine", "value": "approximately 2.5 times"},
      {"measurement": "half-life (t1/2)", "setting": "in vivo", "value": "about 10 hours"},
      {"measurement": "potency as inhibitor of dopamine uptake compared with venlafaxine", "setting": "dopamine uptake", "value": "more potent inhibitor"},
      {"measurement": "potency as inhibitor of norepinephrine uptake compared with venlafaxine", "setting": "norepinephrine uptake", "value": "more potent inhibitor"}
    ]},
    {"smiles": "COc1ccc(C(CN(C)C)C2(O)CCCCC2)cc1", "note": "(single isomer, unassigned; (+)) [(+) enantiomer]", "values": [
      {"measurement": "selectivity in inhibiting serotonin uptake, comparison of enantiomers", "setting": "serotonin uptake", "value": "more selective"}
    ]},
    {"smiles": "COc1ccc(C(CN(C)C)C2(O)CCCCC2)cc1", "note": "(single isomer, unassigned; (-)) [(−) enantiomer]", "values": [
      {"measurement": "potency as inhibitor of norepinephrine synaptosomal uptake, comparison of enantiomers", "setting": "[1]", "value": "more potent inhibitor"}
    ]}
  ]
}
